US8987287B2, “Spirocyclic morphinans and their use” (Purdue Pharma L.P., priority 2012, dated 2015)

Assays:
δ opioid receptor = δ opioid receptor (Homo sapiens (Human), UniProt P41143); assay: δ-opioid receptor [35S]GTPγS functional assay, HEK-293 or CHO cells; assay type: biochemical; conditions: for Emax: relative to met-enkephalin, HEK-293 or CHO cells
Protocol: δ-Opioid Receptor Functional Assay Procedures: Functional [^35S]GTPγS binding assays were conducted as follows. δ opioid receptor membrane solution was prepared by sequentially adding final concentrations of 0.026 μg/μl δ membrane protein (Perkin Elmer, Shelton, Conn.), 10 μg/mL saponin, 3 μM GDP and 0.20 nM [^35S]GTPγS to binding buffer (100 mM NaCl, 10 mM MgCl2, 20 mM HEPES, pH 7.4) on ice. The prepared membrane solution (190 μl/well) was transferred to 96-shallow well polypropylene plates containing 10 μl of 20× concentrated stock solutions of agonist prepared in DMSO. Plates were incubated for 30 min at a temperature of about 25° C. with shaking. Reactions were terminated by rapid filtration onto 96-well Unifilter GF/B filter plates (Perkin Elmer, Shelton, Conn.) using a 96-well tissue harvester (Packard) and followed by three filtration washes with 200 μl ice-cold binding buffer (10 mM NaH2PO4, 10 mM Na2HPO4, pH 7.4). Filter plates were subsequently dried at 50° C. for 1-2 hours. Fifty μl/well scintillation cocktail (Perkin Elmer, Shelton, Conn.) was added and plates were counted in a Packard Top-count for 1 min/well.
δ-Opioid Receptor Functional Data: δ GTP EC50 is the concentration of a compound providing 50% of the maximal response for the compound at a δ receptor.
δ GTP Emax (%) is the maximal effect elicited by a compound relative to the effect elicited by met-enkephalin.
(§1) In TABLE 2, activity response of certain Compounds of the Invention to the μ-, δ- and κ-opioid receptors was determined as described above for functional assays using HEK-293 or CHO cells.

μ-opioid receptor = μ-opioid receptor (Homo sapiens (Human), UniProt P35372); assay: μ-opioid receptor [35S]GTPγS functional assay, HEK-293 or CHO cells; assay type: biochemical; conditions: for Emax: relative to DAMGO, HEK-293 or CHO cells
Protocol: μ-Opioid Receptor Functional Assay Procedures: [^35S]GTPγS functional assays were conducted using freshly thawed μ-receptor membranes prepared in-house from a cell line expressing recombinant μ opioid receptor in a HEK-293, CHO or U-2 OS cell background, or purchased from a commercial source (Perkin Elmer, Shelton, Conn.; or DiscovRx, Fremont, Calif.). Assay reactions were prepared by sequentially adding the following reagents to binding buffer (100 mM NaCl, 10 mM MgCl2, 20 mM HEPES, pH 7.4) on ice (final concentrations indicated): membrane protein (0.026 mg/mL), saponin ([…]), GDP ([…]) and [^35S]GTPγS (0.20 nM; Perkin Elmer, Shelton, Conn.). The prepared membrane solution (190 μl/well) was transferred to 96-shallow well polypropylene plates containing 10 μl of 20× concentrated stock solutions of the agonist [D-Ala^2, N-methyl-Phe^4 Gly-ol^5]-enkephalin (DAMGO) prepared in dimethyl sulfoxide (DMSO). Plates were incubated for 30 min at about 25° C. with shaking. Reactions were terminated by rapid filtration onto 96-well Unifilter GF/B filter plates (Perkin Elmer, Shelton, Conn.) using a 96-well tissue harvester (Perkin Elmer, Shelton, Conn.) followed by three filtration washes with 200 μl of ice-cold wash buffer (10 mM NaH2PO4, 10 mM Na2HPO4, pH 7.4). Filter plates were subsequently dried at 50° C. for 2-3 hours. BetaScint scintillation cocktail (Perkin Elmer, Shelton, Conn.) was added (50 μl/well) and plates were counted using a Packard Top-Count for 1 min/well. Data were analyzed using the sigmoidal dose-response curve fitting functions in GraphPad PRISM v. 3.0, or an in-house function for non-linear, sigmoidal dose-response curve-fitting.
μ-Opioid Receptor Functional Data: μ GTP EC50 is the concentration of a compound providing 50% of the maximal response for the compound at a μ-opioid receptor.
μ GTP Emax (%) is the maximal effect elicited by a compound relative to the effect elicited by DAMGO, a standard μ agonist. Generally, the μ GTP Emax (%) value measures the efficacy of a compound to treat or prevent pain or other Conditions.
as §1

δ opioid receptor, sequence (P41143 whole entry, looked up): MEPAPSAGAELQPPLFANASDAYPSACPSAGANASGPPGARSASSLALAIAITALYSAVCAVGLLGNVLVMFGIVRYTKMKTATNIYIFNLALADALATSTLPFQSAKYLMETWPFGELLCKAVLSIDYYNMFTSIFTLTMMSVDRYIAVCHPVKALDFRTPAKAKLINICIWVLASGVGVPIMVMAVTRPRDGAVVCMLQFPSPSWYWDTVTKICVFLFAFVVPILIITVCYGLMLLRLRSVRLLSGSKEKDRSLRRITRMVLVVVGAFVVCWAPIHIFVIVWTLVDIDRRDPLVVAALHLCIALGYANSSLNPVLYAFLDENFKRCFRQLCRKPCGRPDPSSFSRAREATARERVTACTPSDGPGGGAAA

SMILES | EC50 (δ opioid receptor) | Emax (δ opioid receptor) | EC50 (μ-opioid receptor) | Emax (μ-opioid receptor)
O=C1NC(=O)[C@@]2(CC[C@@]3(O)[C@H]4Cc5ccc(O)cc5[C@@]3(CCN4CC3CC3)C2)N1 [Compound 3, (4bR,4′S,8aS,9R)-11-(cyclopropylmethyl)-3,8a-dihydroxy-5,7,8,8a,9,10-hexahydrospiro[9,4b-(epiminoethano)phenanthrene-6,4′-imidazolidine]-2′,5′-dione] | 34.8 ± 7.78 nM | 42.5 ± 2.84% | > 20000 nM | 10.6 ± 7.11%
O=C1NC[C@@]2(CC[C@@]3(O)[C@H]4Cc5ccc(O)cc5[C@@]3(CCN4CC3CC3)C2)N1 [Compound 5, (4bR,4′S,8aS,9R)-11-(cyclopropylmethyl)-3,8a-dihydroxy-5,7,8,8a,9,10-hexahydrospiro[9,4b-(epiminoethano)phenanthrene-6,4′-imidazolidin]-2′-one] | 37 ± 15 nM | 34.3 ± 2.91% | > 20000 nM | -1%
